Test results published in ChEMBL document CHEMBL4393728, “1-Phenyl-dihydrobenzoindazoles as novel colchicine site inhibitors: Structural basis and antitumor efficacy” (Eur J Med Chem, 2019).
In brackets after ≈: the same amount, converted by molar mass. Activity calls are given as the source filed them. No cut-off for these calls is given here.

How the values were obtained:
Tubulin = Tubulin (Bos taurus, UniProt Q6B856+Q862L2+Q862F3); test: Inhibition of bovine brain tubulin polymerization measured every 1 min for 60 mins by turbidimetric assay
COLO 205 [1] = test: Antiproliferative activity against human COLO205 cells assessed as reduction in cell viability incubated for 72 hrs by MTT assay; assay type: functional, cell-based; settings: COLO 205, 72 h
HCT-116 [2] = test: Antiproliferative activity against human HCT116 cells assessed as reduction in cell viability incubated for 72 hrs by MTT assay; assay type: functional, cell-based; settings: HCT-116, 72 h
[3] = Solubility of compound in normal saline; assay type: physicochemical
COLO 205 [4] = test: Antitumor activity against human COLO205 cells xenografted in BALB/c mouse assessed as reduction in tumor growth at 20 mg/kg, iv via tail once every 4 days for 16 days; assay type: functional, organism-based
HCT-116 [5] = test: Antitumor activity against human HCT116 cells xenografted in BALB/c mouse assessed as reduction in tumor growth at 20 mg/kg, iv via tail once every 4 days for 16 days; assay type: functional, organism-based
[6] = Toxicity in BALB/c mouse xenografted with COLO205 cells assessed as reduction in body weight at 20 mg/kg, iv via tail once every 4 days for 16 days; assay type: organism-based; settings: in vivo
[7] = Toxicity in BALB/c mouse xenografted with HCT116 cells assessed as reduction in body weight at 20 mg/kg, iv via tail once every 4 days for 16 days; assay type: organism-based; settings: in vivo

| Structure (SMILES) | IC50 (Tubulin) [nM] | IC50 (COLO 205 [1]) [nM] | other results |
| --- | --- | --- | --- |
| COc1ccc(-c2[nH]nc3c2-c2cc(OC)c(OC)c(OC)c2CC3)cc1[N+](=O)[O-] | > 10000 | 300 | – |
| COc1ccc(/C=C2\c3cc(OC)c(OC)c(OC)c3CC[C@H]2O)cc1 | > 10000 | 2970 | – |
| COc1ccc(/C=C\c2cc(OC)c(OC)c(OC)c2)cc1O [COMBRETASTATIN A4] | – | – | IC50 (HCT-116 [2]): 1 nM |
| COc1ccc(-c2[nH]nc3c2-c2cc(OC)c(OC)c(OC)c2CC3)cc1F | 9200 | 2 | – |
| COc1ccc(-c2c3c(nn2C)CCc2c-3cc(OC)c(OC)c2OC)cc1F | > 10000 | 1230 | – |
| COc1ccc(-c2[nH]nc3c2-c2cc(OC)c(OC)c(OC)c2CC3)cc1N | 1600 | 1 | IC50 (HCT-116 [2]): 1 nM; solubility [3]: 1000 µg/mL (≈ 2620 µM) |
| COc1ccc(-c2[nH]nc3c2-c2cc(OC)c(OC)c(OC)c2CC3)cc1NC(=O)[C@@H](N)CO.Cl | > 10000 | 2110 | Activity (COLO 205 [4]): Active; Activity (HCT-116 [5]): Active; Activity [6]: Non-Toxic; Activity [7]: Non-Toxic; IC50 (HCT-116 [2]): 1940 nM |
| COc1ccc(-c2c3c(nn2-c2ccccc2)CCc2c-3cc(OC)c(OC)c2OC)cc1F | > 10000 | > 10000 | – |
| COc1ccc(-c2c3c(nn2CCO)CCc2c-3cc(OC)c(OC)c2OC)cc1F | > 10000 | 2910 | – |
| COc1ccc(/C=C2\c3cc(OC)c(OC)c(OC)c3CC[C@@H]2O)cc1 | > 10000 | 8150 | – |
| COc1ccc(-c2c3c(nn2C)CCc2c-3cc(OC)c(OC)c2OC)cc1 | > 10000 | 3350 | – |
